Data on 28 compounds can be found in patent US10899738B2 (THE REGENTS OF THE UNIVERSITY OF MICHIGAN, priority 2016, dated 2021).

The structures appear in SMILES notation. pIC50: −log10 of the molar value.

menin protein, sequence (O00255 whole entry): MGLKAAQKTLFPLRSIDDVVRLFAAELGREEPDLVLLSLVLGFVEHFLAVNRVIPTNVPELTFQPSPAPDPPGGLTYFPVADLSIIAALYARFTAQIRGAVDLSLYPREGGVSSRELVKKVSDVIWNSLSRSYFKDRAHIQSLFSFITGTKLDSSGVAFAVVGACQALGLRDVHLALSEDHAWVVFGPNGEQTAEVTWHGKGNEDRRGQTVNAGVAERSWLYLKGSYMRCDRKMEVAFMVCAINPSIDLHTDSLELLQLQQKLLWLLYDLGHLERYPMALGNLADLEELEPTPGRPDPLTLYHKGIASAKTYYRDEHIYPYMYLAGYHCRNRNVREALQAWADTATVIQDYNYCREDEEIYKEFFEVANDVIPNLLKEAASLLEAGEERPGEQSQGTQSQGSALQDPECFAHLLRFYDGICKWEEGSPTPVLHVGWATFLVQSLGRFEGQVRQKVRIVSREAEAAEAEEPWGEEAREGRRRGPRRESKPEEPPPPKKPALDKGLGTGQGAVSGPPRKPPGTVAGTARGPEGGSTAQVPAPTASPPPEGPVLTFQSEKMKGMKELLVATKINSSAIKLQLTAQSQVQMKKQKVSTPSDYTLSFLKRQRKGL

For the test, the target named is menin protein (Homo sapiens (Human), UniProt O00255). Put plainly: biochemical. It counts as binding. Conditions: FP competitive binding; menin protein 4 nM, FAM-MM2 probe 2 nM; read-out: Menin Binding Affinity IC50. The method in brief:
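Competitive fluorescence polarization assay using FAM-labelled MLL1 peptide probe FAM-MM2 (2 nM final) preincubated with menin (4 nM final) in PBS with 0.02% bovine γ-globulin, 4% DMSO and 0.01% Triton X-100. Compounds were added and incubated 30 min at room temperature. IC50 came from nonlinear regression of competition curves, with Ki also derived.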
For orientation: pIC50 means −log10 of the IC50, conventionally taken in molar units. As to `C[C@@H]1CC(C(C#N)(c2ccccc2)C2CCCC2)C[C@H](C)N1CCCOc1ccc(C#N)cc1` (stereo partly drawn) [compound 121, 4-(3-((2S,6R)-4-(cyano(cyclopentyl)(phenyl)methyl)-2,6-dimethylpiperidin-1-yl)propoxy)benzonitrile], the pIC50 was 4.88.

`N#Cc1ccc(N2CC(C(=O)N3CCC(C4(C5CCCC5)NCCc5ccccc54)CC3)C2)cc1` (stereo not shown) [compound 128, 4-(3-(4-(1-cyclopentyl-1,2,3,4-tetrahydroisoquinolin-1-yl)piperidine-1-carbonyl)azetidin-1-yl)benzonitrile]: the pIC50 was 5.39.

Take `CO[C@@H]1CCC[C@H]1C1(C2CCN(CCCOc3ccc(C#N)cc3)CC2)CN(C)Cc2ccccc21` (mixture of isomers) [compound 326, rac-4-(3-(4-(4-((1S,2R)-2-methoxycyclopentyl)-2-methyl-1,2,3,4-tetrahydroisoquinolin-4-yl)piperidin-1-yl)propoxy)benzonitrile]: the negative logarithm of the IC50 (pIC50) was 5.57.

Take `CNC(=O)O[C@@H]1CCC[C@H]1C(C#N)(c1ccccc1)C1CCN(CC2CN(c3ccc([N+](=O)[O-])cc3)C2)CC1` (mixture of isomers) [compound 384, rac-(1R,2S)-2-(cyano(1-((1-(4-nitrophenyl)azetidin-3-yl)methyl)piperidin-4-yl)(phenyl)methyl)cyclopentyl methylcarbamate]: the negative-log IC50 (pIC50) was 5.34.

In the case of `CO[C@@H]1CCC[C@@H]1C(C#N)(c1ccccc1)C1CCN(CCCOc2ccc(C#N)cc2)CC1` (mixture of isomers) [compound 177, rac-4-(3-(4-(cyano((1R,2R)-2-methoxycyclopentyl)(phenyl)methyl)piperidin-1-yl)propoxy)benzonitrile], the negative-log IC50 (pIC50) is 5.44.

Take `CNC(=O)N[C@@H]1CCC[C@H]1C(C#N)(c1ccccc1)C1CCN(CCCOc2ccc(C#N)cc2)CC1` (mixture of isomers) [compound 318, rac-1-((1R,2S)-2-(cyano(1-(3-(4-cyanophenoxy)propyl)piperidin-4-yl)(phenyl)methyl)cyclopentyl)-3-methylurea]: the pIC50 is 4.68.

Take `CNC(=O)N[C@@H]1CCC[C@H]1C(C#N)(c1ccccc1)C1CCN(CC2CN(c3ccc(S(=O)(=O)c4ccncc4)cc3)C2)CC1` (mixture of isomers) [compound 270, rac-1-((1R,2S)-2-(cyano(phenyl)(1-((1-(4-(pyridin-4-ylsulfonyl)phenyl)azetidin-3-yl)methyl)piperidin-4-yl)methyl)cyclopentyl)-3-methylurea]: the negative-log IC50 (pIC50) was 6.06.

Regarding `CC(C)C(=O)O[C@H]1CCC[C@@H]1C(C#N)(c1ccccc1)C1CCN(CC2CN(c3ccc(S(=O)(=O)c4ccncc4)cc3)C2)CC1` (mixture of isomers) [compound 193, rac-(1S,2R)-2-(cyano(phenyl)(1-((1-(4-(pyridin-4-ylsulfonyl)phenyl)azetidin-3-yl)methyl)piperidin-4-yl)methyl)cyclopentyl isobutyrate], the pIC50 was 6.63.

As to `CN1CCC(C2(C3CCCCN3)CN(C)Cc3ccccc32)CC1` (stereo not shown) [compound 166, 2-methyl-4-(1-methylpiperidin-4-yl)-4-(piperidin-2-yl)-1,2,3,4-tetrahydroisoquinoline], the negative-log IC50 (pIC50) was 2.85.

Regarding `N#Cc1ccc(NCCCN2CCC(C3(C4CCCC4)NCCc4ccccc43)CC2)cc1` (stereo not shown) [compound 58, 4-((3-(4-(1-cyclopentyl-1,2,3,4-tetrahydroisoquinolin-1-yl)piperidin-1-yl)propyl)amino)benzonitrile], the negative-log IC50 (pIC50) was 6.62.

`CN1COCN([C@H]2CCC[C@@H]2C(C#N)(c2ccccc2)C2CCN(CC3CN(c4ccc(S(=O)(=O)c5ccncc5)cc4)C3)CC2)C1=O` (mixture of isomers) [compound 279, rac-2-((1R,2S)-2-(5-methyl-4-oxo-1,3,5-oxadiazinan-3-yl)cyclopentyl)-2-phenyl-2-(1-((1-(4-(pyridin-4-ylsulfonyl)phenyl)azetidin-3-yl)methyl)piperidin-4-yl)acetonitrile]: the negative-log IC50 (pIC50) is 7.19.

With `COCC(C1CC1)C(C#N)(c1ccccc1)C1CCN(CCCOc2ccc(C#N)cc2)CC1` (stereo not shown) [compound 329], the pIC50 is 4.72.

As for `CCN1Cc2ccccc2C(C2CCCC2)(C2CCN(CC3CN(c4ccc(S(=O)(=O)C5CC5)cc4C)C3)CC2)C1` (stereo not shown) [compound 96, 4-cyclopentyl-4-(1-((1-(4-(cyclopropylsulfonyl)-2-methylphenyl)azetidin-3-yl)methyl)piperidin-4-yl)-2-ethyl-1,2,3,4-tetrahydroisoquinoline], the negative logarithm of the IC50 (pIC50) is 6.23.

As for `CCS(=O)(=O)c1ccc(N2CC(C(=O)N3CCC(C4(C5CCCC5)NCCc5c(F)cccc54)CC3)C2)cc1` (stereo not shown) [compound 116, (4-(1-cyclopentyl-5-fluoro-1,2,3,4-tetrahydroisoquinolin-1-yl)piperidin-1-yl)(1-(4-(ethylsulfonyl)phenyl)azetidin-3-yl)methanone], the pIC50 is 5.22.

As to `N#Cc1ccc(OCCCN2CCC(C3(Cc4ccccc4)NCCc4ccccc43)CC2)cc1` (stereo not shown) [compound 243, 4-(3-(4-(1-benzyl-1,2,3,4-tetrahydroisoquinolin-1-yl)piperidin-1-yl)propoxy)benzonitrile], the negative-log IC50 (pIC50) is 5.38.

On to `CN(C)S(=O)(=O)c1ccc(N2CC(CN3CCC(C4(C5CCCC5)NCCc5ccccc54)CC3)C2)cc1` (stereo not shown) [compound 88, 4-(3-((4-(1-cyclopentyl-1,2,3,4-tetrahydroisoquinolin-1-yl)piperidin-1-yl)methyl)azetidin-1-yl)-N,N-dimethylbenzenesulfonamide], for which the pIC50 was 7.12.

For the compound `N#Cc1ccc(OCCCN2CCC(C3(C4CCC4)NCCc4ccccc43)CC2)cc1` (stereo not shown) [compound 247, 4-(3-(4-(1-cyclobutyl-1,2,3,4-tetrahydroisoquinolin-1-yl)piperidin-1-yl)propoxy)benzonitrile], the pIC50 is 5.96.

For the compound `CNC(=O)O[C@@H]1CCC[C@H]1C(C#N)(c1ccccc1)C1CCN(CC2CN(c3ccc(S(=O)(=O)c4cnn(C)c4)cc3)C2)CC1` (mixture of isomers) [compound 241, rac-(1R,2S)-2-(cyano(1-((1-(4-((1-methyl-1H-pyrazol-4-yl)sulfonyl)phenyl)azetidin-3-yl)methyl)piperidin-4-yl)(phenyl)methyl)cyclopentyl methylcarbamate], the pIC50 was 6.07.

Take `C[C@H](NC(=O)O[C@H]1CCC[C@@H]1[C@](C#N)(c1ccccc1)C1CCN(CC2CN(c3ccc(S(=O)(=O)c4ccncc4)cc3)C2)CC1)c1ccccc1` [compound 217, (1S,2R)-2-((S)-cyano(phenyl)(1-((1-(4-(pyridin-4-ylsulfonyl)phenyl)azetidin-3-yl)methyl)piperidin-4-yl)methyl)cyclopentyl ((S)-1-phenylethyl)carbamate]: the pIC50 is 4.94.

With `CC(=O)O[C@@H]1CCC[C@H]1C(C#N)(c1ccccc1)C1CCN(CC2CN(c3ccc(S(=O)(=O)c4ccncc4)cc3)C2)CC1` (mixture of isomers) [compound 207, rac-(1R,2S)-2-(cyano(phenyl)(1-((1-(4-(pyridin-4-ylsulfonyl)phenyl)azetidin-3-yl)methyl)piperidin-4-yl)methyl)cyclopentyl acetate], the pIC50 was 5.55.

Take `N#Cc1ccc2[nH]c(CCN3CCC(C4(C5CCCC5)NCCc5ccccc54)CC3)cc2c1` (stereo not shown) [compound 67, 2-(2-(4-(1-cyclopentyl-1,2,3,4-tetrahydroisoquinolin-1-yl)piperidin-1-yl)ethyl)-1H-indole-5-carbonitrile]: the pIC50 is 5.92.

Regarding `COCCCN1CCC(C2(C3CCCC3)NCCc3ccccc32)CC1` (stereo not shown) [compound 73, 1-cyclopentyl-1-(1-(3-methoxypropyl)piperidin-4-yl)-1,2,3,4-tetrahydroisoquinoline], the pIC50 is 5.00.

As for `CC(=O)N1CCCCC1C1(C2CCN(CCCOc3ccc(C#N)cc3)CC2)CN(C)Cc2ccccc21` (stereo not shown) [compound 297, 4-(3-(4-(4-(1-acetylpiperidin-2-yl)-2-methyl-1,2,3,4-tetrahydroisoquinolin-4-yl)piperidin-1-yl)propoxy)benzonitrile], the pIC50 is 5.68.

As for `CN([C@H]1CCC[C@@H]1C(C#N)(c1ccccc1)C1CCN(CC2CN(c3ccc(S(=O)(=O)C4CC4)cc3)C2)CC1)S(C)(=O)=O` (mixture of isomers) [compound 273, rac-N-((1S,2R)-2-(cyano(1-((1-(4-(cyclopropylsulfonyl)phenyl)azetidin-3-yl)methyl)piperidin-4-yl)(phenyl)methyl)cyclopentyl)-N-methylmethanesulfonamide], the negative logarithm of the IC50 (pIC50) was 4.42.

Take `CNC(=O)O[C@@H]1CCC[C@H]1C(C#N)(c1ccccc1)C1CCN(CC2CN(c3ccc(C#N)cc3)C2)CC1` (mixture of isomers) [compound 364, rac-(1R,2S)-2-(cyano(1-((1-(4-cyanophenyl)azetidin-3-yl)methyl)piperidin-4-yl)(phenyl)methyl)cyclopentyl methylcarbamate]: the negative logarithm of the IC50 (pIC50) is 5.51.

For `CNC(=O)N[C@H]1CCC[C@@H]1C(CNC(=O)c1cocn1)(c1ccccc1)C1CCN(CC2CN(c3ccc(C#N)cc3)C2)CC1` (mixture of isomers) [compound 378, rac-N-(2-(1-((1-(4-cyanophenyl)azetidin-3-yl)methyl)piperidin-4-yl)-2-((1R,2S)-2-(3-methylureido)cyclopentyl)-2-phenylethyl)oxazole-4-carboxamide], the negative logarithm of the IC50 (pIC50) is 7.49.

Consider `N#Cc1ccc(OCCCN2CCC(C(CN)(c3ccccc3)C3CCCC3)CC2)cc1` (stereo not shown) [compound 39, 4-(3-(4-(2-amino-1-cyclopentyl-1-phenylethyl)piperidin-1-yl)propoxy)benzonitrile], for which the pIC50 was 6.91.

With `CC(=O)N[C@H]1CCC[C@@H]1C(C#N)(c1ccccc1)C1CCN(CC2CN(c3ccc(C#N)cc3)C2)CC1` (mixture of isomers) [compound 382, rac-N-((1S,2R)-2-(cyano(1-((1-(4-cyanophenyl)azetidin-3-yl)methyl)piperidin-4-yl)(phenyl)methyl)cyclopentyl)acetamide], the pIC50 was 6.99.
